Results taken from ChEMBL document CHEMBL3826966, “A chromatography-free isolation of rohitukine from leaves of Dysoxylum binectariferum: Evaluation for in vitro cytotoxicity, Cdk inhibition and physicochemical properties” (Bioorg Med Chem Lett, 2016).
Converted amounts (≈) assume the structure as drawn.

Experiments:
[1] = target: MAP kinase-activated protein kinase 3 (Homo sapiens) (UniProt Q16644); assay: Inhibition of human MAPKAPK3 assessed as remaining enzyme activity at 50 uM after 30 mins by 33P-ATP filter-binding assay
[2] = target: Serine/threonine-protein kinase PLK1 (Homo sapiens) (UniProt P53350); assay: Inhibition of human PLK1 (1 to 603 residues) assessed as remaining enzyme activity at 50 uM after 30 mins by 33P-ATP filter-binding assay
[3] = target: Serine/threonine-protein kinase SIK3 (Homo sapiens) (UniProt Q9Y2K2); assay: Inhibition of human SIK3 (2 to 1369 residues) assessed as remaining enzyme activity at 50 uM after 30 mins by 33P-ATP filter-binding assay
[4] = target: Inhibitor of nuclear factor kappa-B kinase subunit beta (Homo sapiens) (UniProt O14920); assay: Inhibition of human IKKb (1 to 736 residues) assessed as remaining enzyme activity at 50 uM after 30 mins by 33P-ATP filter-binding assay
[5] = target: Serine/threonine-protein kinase PAK 2 (Homo sapiens) (UniProt Q13177); assay: Inhibition of human PAK2 assessed as remaining enzyme activity at 50 uM after 30 mins by 33P-ATP filter-binding assay
[6] = target: Serine/threonine-protein kinase PAK 5 (Homo sapiens) (UniProt Q9P286); assay: Inhibition of human PAK5 (2 to 719 residues) assessed as remaining enzyme activity at 50 uM after 30 mins by 33P-ATP filter-binding assay
[7] = target: Serine/threonine-protein kinase 24 (Homo sapiens) (UniProt Q9Y6E0); assay: Inhibition of human MST3 (2 to 431 residues) assessed as remaining enzyme activity at 50 uM after 30 mins by 33P-ATP filter-binding assay
[8] = target: Mitogen-activated protein kinase kinase kinase 7 (Homo sapiens) (UniProt O43318); assay: Inhibition of human TAK1 (1 to 303 residues) assessed as remaining enzyme activity at 50 uM after 30 mins by 33P-ATP filter-binding assay
[9] = target: Receptor-interacting serine/threonine-protein kinase 2 (Homo sapiens) (UniProt O43353); assay: Inhibition of human RIPK2 (2 to 311 residues) assessed as remaining enzyme activity at 50 uM after 30 mins by 33P-ATP filter-binding assay
[10] = target: Tyrosine-protein kinase JAK2 (Homo sapiens) (UniProt O60674); assay: Inhibition of human JAK2 assessed as remaining enzyme activity at 50 uM after 30 mins by 33P-ATP filter-binding assay
[11] = target: Tyrosine-protein kinase SYK (Homo sapiens) (UniProt P43405); assay: Inhibition of human SYK (1 to 635 residues) assessed as remaining enzyme activity at 50 uM after 30 mins by 33P-ATP filter-binding assay
[12] = target: Ephrin type-B receptor 1 (Homo sapiens) (UniProt P54762); assay: Inhibition of human EPHB1 (565 to 984 residues) assessed as remaining enzyme activity at 50 uM after 30 mins by 33P-ATP filter-binding assay
[13] = target: Fibroblast growth factor receptor 1 (Homo sapiens) (UniProt P11362); assay: Inhibition of human FGFR1 (400 to 820 residues) assessed as remaining enzyme activity at 50 uM after 30 mins by 33P-ATP filter-binding assay
[14] = target: High affinity nerve growth factor receptor (Homo sapiens) (UniProt P04629); assay: Inhibition of human TRKA (441 to 760 residues) assessed as remaining enzyme activity at 50 uM after 30 mins by 33P-ATP filter-binding assay
[15] = target: Vascular endothelial growth factor receptor (Homo sapiens) (UniProt P17948+P35916+P35968); assay: Inhibition of human VEGFR assessed as remaining enzyme activity at 50 uM after 30 mins by 33P-ATP filter-binding assay; assay type: protein assay
HL-60 [16] = assay: Induction of apoptosis in human HL60 cells assessed as apoptotic cells at 1 uM (reference value: 1 %); assay type: functional
HL-60 [17] = assay: Induction of apoptosis in human HL60 cells assessed as apoptotic cells at 10 uM (reference value: 1 %); assay type: functional
[18] = Cell cycle arrest in human HL60 cells assessed as accumulation at G1 phase at 10 uM (reference value: 59 %); assay type: functional, cell-based; conditions: HL-60
[19] = Cell cycle arrest in human HL60 cells assessed as accumulation at G2 phase at 5 uM (reference value: 5 %); assay type: functional, cell-based; conditions: HL-60
[20] = Partition coefficient, logP of the compound in water/PBS buffer at 25 degC by OECD guidelines based method; assay type: physicochemical; conditions: water/PBS buffer; read-out: logP
[21] = Thermodynamic equilibrium solubility in stimulated gastric fluid at 120 ug/ml at pH 1.2 by HPLC analysis; assay type: ADME; conditions: simulated gastric fluid, read-out: Therm_solubility
[22] = Stability in pH 7.4 buffer at 120 ug/ml after 8 hrs by RP-HPLC analysis; assay type: physicochemical; conditions: pH 7.4, 8 h
K562 = assay: Cytotoxicity against human K562 cells assessed as cell growth inhibition after 48 hrs by MTT assay; assay type: functional; conditions: K562, 48 h
[23] = Cytotoxicity against human PC3 cells assessed as cell growth inhibition after 48 hrs by MTT assay; assay type: functional; conditions: PC-3, 48 h
[24] = Cytotoxicity against human SF295 cells assessed as cell growth inhibition after 48 hrs by MTT assay; assay type: functional; conditions: SF-295, 48 h
[25] = Cytotoxicity against human SF539 cells assessed as cell growth inhibition after 48 hrs by MTT assay; assay type: functional; conditions: SF-539, 48 h
[26] = target: CDK2/Cyclin A2 (Homo sapiens) (UniProt P24941+P20248); assay: Inhibition of human Cdk2/cyclin A at 0.5 uM using Histone H1 substrate after 30 mins by 33P-ATP filter-binding assay; assay type: protein-complex assay
[27] = target: Dual specificity mitogen-activated protein kinase kinase 2 (Homo sapiens) (UniProt P36507); assay: Inhibition of human MKK2 (2 to 400 residues) assessed as remaining enzyme activity at 50 uM after 30 mins by 33P-ATP filter-binding assay
[28] = target: Mitogen-activated protein kinase 3 (Homo sapiens) (UniProt P27361); assay: Inhibition of human ERK1 (1 to 379) assessed as remaining enzyme activity at 50 uM after 30 mins by 33P-ATP filter-binding assay
[29] = target: Mitogen-activated protein kinase 8 (Homo sapiens) (UniProt P45983); assay: Inhibition of human JNK1 (1 to 384 residues) assessed as remaining enzyme activity at 50 uM after 30 mins by 33P-ATP filter-binding assay
[30] = target: Mitogen-activated protein kinase 9 (Homo sapiens) (UniProt P45984); assay: Inhibition of human JNK2 (1 to 424 residues) assessed as remaining enzyme activity at 50 uM after 30 mins by 33P-ATP filter-binding assay
[31] = target: Ribosomal protein S6 kinase alpha-1 (Homo sapiens) (UniProt Q15418); assay: Inhibition of human RSK1 (1 to 735 residues) assessed as remaining enzyme activity at 50 uM after 30 mins by 33P-ATP filter-binding assay
[32] = target: RAC-beta serine/threonine-protein kinase (Homo sapiens) (UniProt P31751); assay: Inhibition of human PKBbeta assessed as remaining enzyme activity at 50 uM after 30 mins by 33P-ATP filter-binding assay

Ephrin type-B receptor 1 (Homo sapiens), sequence (P54762 whole entry, the tested form may be a part): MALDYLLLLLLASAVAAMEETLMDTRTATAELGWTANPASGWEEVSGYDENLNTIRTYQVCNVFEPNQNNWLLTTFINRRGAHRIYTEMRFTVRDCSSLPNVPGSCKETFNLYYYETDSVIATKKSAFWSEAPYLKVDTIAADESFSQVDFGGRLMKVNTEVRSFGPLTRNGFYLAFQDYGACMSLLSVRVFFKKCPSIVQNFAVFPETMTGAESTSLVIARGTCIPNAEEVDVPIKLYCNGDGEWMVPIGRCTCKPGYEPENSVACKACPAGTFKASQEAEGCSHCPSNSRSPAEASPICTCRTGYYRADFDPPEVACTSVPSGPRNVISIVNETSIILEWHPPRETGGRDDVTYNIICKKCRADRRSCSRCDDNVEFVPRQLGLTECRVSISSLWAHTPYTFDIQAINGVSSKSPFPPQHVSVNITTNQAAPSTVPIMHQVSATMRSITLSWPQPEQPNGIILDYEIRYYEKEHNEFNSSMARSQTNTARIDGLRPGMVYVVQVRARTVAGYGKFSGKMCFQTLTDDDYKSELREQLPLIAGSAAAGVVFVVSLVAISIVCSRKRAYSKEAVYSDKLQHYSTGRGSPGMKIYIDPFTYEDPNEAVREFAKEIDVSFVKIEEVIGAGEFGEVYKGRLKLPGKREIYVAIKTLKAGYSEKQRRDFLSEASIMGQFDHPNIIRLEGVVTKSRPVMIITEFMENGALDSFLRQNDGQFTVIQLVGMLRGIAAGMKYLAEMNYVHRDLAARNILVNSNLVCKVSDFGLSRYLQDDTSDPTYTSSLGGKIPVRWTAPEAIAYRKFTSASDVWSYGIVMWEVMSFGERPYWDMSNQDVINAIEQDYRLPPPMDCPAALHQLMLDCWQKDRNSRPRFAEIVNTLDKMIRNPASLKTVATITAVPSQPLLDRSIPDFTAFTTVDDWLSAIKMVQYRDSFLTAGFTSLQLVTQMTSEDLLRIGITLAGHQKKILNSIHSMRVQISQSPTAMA
Mitogen-activated protein kinase 8 (Homo sapiens), sequence (P45983 whole entry, the tested form may be a part): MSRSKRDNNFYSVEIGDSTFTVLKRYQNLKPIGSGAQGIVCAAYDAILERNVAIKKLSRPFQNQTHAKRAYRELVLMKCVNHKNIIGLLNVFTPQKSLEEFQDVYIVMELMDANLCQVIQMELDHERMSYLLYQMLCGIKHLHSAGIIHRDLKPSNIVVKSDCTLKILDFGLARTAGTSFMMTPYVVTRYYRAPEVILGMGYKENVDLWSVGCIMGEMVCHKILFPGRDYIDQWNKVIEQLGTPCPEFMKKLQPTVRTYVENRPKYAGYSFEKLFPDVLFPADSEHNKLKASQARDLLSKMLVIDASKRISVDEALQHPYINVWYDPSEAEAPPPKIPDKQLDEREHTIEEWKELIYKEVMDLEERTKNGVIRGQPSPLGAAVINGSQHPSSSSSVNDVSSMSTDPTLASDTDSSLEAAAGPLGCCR
High affinity nerve growth factor receptor (Homo sapiens), sequence (P04629 33-796 limits assumed): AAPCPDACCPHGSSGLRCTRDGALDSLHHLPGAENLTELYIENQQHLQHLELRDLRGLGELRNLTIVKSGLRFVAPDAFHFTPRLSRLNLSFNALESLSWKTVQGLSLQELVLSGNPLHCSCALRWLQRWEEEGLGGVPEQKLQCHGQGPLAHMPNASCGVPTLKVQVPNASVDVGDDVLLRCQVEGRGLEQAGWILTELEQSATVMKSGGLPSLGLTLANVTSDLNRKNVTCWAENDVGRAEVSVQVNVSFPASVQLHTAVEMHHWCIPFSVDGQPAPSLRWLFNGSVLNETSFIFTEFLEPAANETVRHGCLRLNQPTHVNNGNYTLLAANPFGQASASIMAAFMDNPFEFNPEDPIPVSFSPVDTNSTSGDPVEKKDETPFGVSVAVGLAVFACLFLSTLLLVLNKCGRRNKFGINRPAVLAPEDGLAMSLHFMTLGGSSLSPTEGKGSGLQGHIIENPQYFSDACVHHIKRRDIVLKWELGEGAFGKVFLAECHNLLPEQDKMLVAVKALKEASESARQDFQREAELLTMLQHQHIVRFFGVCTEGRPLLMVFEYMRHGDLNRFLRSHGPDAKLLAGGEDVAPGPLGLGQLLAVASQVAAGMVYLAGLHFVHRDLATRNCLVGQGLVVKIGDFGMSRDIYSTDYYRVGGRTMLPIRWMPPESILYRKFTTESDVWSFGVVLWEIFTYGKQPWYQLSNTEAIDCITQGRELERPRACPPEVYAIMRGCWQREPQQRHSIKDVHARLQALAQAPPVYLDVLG
Serine/threonine-protein kinase SIK3 (Homo sapiens), sequence (Q9Y2K2 whole entry, looked up, the tested form may be a part): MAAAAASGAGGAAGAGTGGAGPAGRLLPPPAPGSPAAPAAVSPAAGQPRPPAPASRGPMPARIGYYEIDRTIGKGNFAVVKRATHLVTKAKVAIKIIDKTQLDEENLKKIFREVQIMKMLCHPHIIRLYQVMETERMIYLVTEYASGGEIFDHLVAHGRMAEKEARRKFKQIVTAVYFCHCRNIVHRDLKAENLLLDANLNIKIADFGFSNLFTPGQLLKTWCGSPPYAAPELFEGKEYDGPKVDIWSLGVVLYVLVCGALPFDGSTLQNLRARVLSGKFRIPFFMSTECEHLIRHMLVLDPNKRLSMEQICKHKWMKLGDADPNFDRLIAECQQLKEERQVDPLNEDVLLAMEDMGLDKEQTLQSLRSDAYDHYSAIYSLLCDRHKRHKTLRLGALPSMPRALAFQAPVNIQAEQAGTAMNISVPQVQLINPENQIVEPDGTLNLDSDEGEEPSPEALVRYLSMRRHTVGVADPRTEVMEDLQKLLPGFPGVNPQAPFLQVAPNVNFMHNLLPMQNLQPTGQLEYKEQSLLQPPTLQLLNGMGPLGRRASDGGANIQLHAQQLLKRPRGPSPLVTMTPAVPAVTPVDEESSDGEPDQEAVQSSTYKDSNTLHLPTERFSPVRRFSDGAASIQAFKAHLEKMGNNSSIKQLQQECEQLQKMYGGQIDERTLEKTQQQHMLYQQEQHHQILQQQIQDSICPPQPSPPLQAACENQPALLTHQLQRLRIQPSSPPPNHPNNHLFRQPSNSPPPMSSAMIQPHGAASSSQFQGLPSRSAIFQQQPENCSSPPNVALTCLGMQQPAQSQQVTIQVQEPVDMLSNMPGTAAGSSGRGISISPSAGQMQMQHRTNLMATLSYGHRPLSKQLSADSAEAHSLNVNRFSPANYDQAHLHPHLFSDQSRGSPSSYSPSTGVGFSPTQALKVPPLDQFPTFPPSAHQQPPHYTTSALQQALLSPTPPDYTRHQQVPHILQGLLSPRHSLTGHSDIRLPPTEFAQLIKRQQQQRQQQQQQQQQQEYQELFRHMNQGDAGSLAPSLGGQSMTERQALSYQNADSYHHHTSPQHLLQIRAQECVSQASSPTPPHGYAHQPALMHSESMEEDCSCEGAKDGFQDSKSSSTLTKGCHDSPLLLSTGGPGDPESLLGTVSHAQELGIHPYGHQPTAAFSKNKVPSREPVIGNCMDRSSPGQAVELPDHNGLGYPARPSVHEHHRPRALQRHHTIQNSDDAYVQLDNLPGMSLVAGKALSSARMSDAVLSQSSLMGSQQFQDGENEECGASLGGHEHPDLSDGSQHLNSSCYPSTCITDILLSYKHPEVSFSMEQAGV
Inhibitor of nuclear factor kappa-B kinase subunit beta (Homo sapiens), sequence (O14920 whole entry, the tested form may be a part): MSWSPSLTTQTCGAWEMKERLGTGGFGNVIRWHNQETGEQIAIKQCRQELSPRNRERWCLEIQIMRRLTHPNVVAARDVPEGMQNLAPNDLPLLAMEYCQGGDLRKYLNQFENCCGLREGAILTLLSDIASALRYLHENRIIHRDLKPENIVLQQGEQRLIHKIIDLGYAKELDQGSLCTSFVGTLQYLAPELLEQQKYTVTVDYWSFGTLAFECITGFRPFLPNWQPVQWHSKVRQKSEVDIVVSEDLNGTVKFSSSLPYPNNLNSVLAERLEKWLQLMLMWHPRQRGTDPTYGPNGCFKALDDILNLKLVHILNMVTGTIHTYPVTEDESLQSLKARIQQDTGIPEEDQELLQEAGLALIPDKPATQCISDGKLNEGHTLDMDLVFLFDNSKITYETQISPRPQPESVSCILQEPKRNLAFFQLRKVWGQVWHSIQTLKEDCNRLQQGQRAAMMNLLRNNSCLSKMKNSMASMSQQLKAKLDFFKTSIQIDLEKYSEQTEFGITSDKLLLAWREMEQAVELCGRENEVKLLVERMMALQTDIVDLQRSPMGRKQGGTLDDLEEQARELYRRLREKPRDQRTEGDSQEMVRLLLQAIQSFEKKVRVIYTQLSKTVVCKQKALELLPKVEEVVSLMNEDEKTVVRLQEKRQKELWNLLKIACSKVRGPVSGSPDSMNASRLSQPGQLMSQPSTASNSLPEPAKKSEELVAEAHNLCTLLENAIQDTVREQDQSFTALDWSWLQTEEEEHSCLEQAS
Mitogen-activated protein kinase kinase kinase 7 (Homo sapiens), sequence (O43318 whole entry, the tested form may be a part): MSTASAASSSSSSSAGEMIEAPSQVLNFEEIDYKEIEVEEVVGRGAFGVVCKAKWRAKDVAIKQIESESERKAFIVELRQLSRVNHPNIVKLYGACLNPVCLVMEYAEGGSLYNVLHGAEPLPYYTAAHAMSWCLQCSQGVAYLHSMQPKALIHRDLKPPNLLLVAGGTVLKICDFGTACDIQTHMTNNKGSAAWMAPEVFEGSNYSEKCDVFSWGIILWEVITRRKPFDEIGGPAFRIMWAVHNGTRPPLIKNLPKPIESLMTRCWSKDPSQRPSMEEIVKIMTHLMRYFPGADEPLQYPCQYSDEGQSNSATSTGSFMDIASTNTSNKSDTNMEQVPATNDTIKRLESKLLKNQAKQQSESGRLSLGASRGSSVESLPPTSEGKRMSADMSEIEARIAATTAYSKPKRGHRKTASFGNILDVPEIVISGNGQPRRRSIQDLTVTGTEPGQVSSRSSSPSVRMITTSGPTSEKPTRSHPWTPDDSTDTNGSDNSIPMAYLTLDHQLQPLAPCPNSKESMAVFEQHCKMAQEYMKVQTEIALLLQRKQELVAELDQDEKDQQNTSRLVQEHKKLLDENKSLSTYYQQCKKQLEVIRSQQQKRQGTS

What does the source list for `Cc1cc(=O)c2c(O)cc(O)c([C@H]3CCN(C)C[C@H]3O)c2o1` [ROHITUKINE]?
Activity [1]: 83%; Activity [2]: 96%; Activity [3]: 28%; Activity [4]: 83%; Activity [5]: 88%; Activity [6]: 87%; Activity [7]: 85%; Activity [8]: 70%; Activity [9]: 63%; Activity [10]: 41%; Activity [11]: 109%; Activity [12]: 54%; Activity [13]: 66%; Activity [14]: 89%; Activity [15]: 18%; Activity (HL-60 [16]): 1%; Activity (HL-60 [17]): 10%; Activity [18]: 48%; Activity [19]: 11%; logP [20]: 0.73; solubility thermodynamic [21]: 33.4 mg/mL (≈ 109 mM); Stability [22]: Stable; GI50 (K562): 24 µM; GI50 [23]: 19 µM; GI50 [24]: 27 µM; GI50 [25]: 30 µM; inhibition [26]: 10%; Activity [27]: 44%; Activity [28]: 86%; Activity [29]: 96%; Activity [30]: 107%; Activity [31]: 31%; Activity [32]: 80%
